Like-named read-outs stand apart in the source and are kept apart here.
What was measured:
T. brucei [1] = experiment: microbe, parasite or virus in culture; conditions: Trypanosoma brucei, read-out: EC50 by direct counting of cell growth
[2] = system: bloodstream forms of Trypanosoma brucei; experiment: Resazurin cell viability assay, EC50 determinations against T. brucei; format: cell-based, T. b. brucei (strain 427)
T. brucei [3] = system: T. brucei
human fibroblasts (MRC5) = experiment: DMSO tolerance of the resazurin assay, human fibroblasts; format: cell-based
Procedure: (§1) DMSO was serially diluted across a 96-well plate in 200 μl of the appropriate medium. For T. brucei, 100 μl aliquots were then transferred to a plate containing 100 μl cells at 2 × 10^3 ml^−1. Human fibroblasts were plated at 2 × 10^4 ml^−1 in 100 μl of medium and incubated overnight to allow cells to adhere before the addition of medium containing DMSO (100 μl) over a range of concentrations. Parasites and mammalian cells were then incubated for 3 days, after which 20 μl 500-μM resazurin was added to each well. Plates were incubated for a further 4 h before measuring fluorescence as above.

T. brucei [4] = experiment: DMSO tolerance of the resazurin assay, T. brucei; format: cell-based
Procedure: as §1

MRC5 cells = experiment: Resazurin cell viability counter-screen, EC50 determinations against mammalian cells; format: cell-based, human; conditions: for EC50: Homo sapiens, MRC5, 72 h, read-out: EC50 vs. MRC5
[5] = Trypanosoma brucei, 72 h, read-out: EC50 of standard drugs against T. brucei
[6] = read-out: EC50 of standard drugs against T. brucei
[7] = Trypanosoma brucei, 72 h, read-out: EC50 vs. T. brucei

Question: For `NCCCC(N)(C(=O)O)C(F)F` (centres unmarked) [eflornithine, difluoromethylornithine], which EC50 (T. brucei [1]) is on record?
Answer: 17100 ± 100 nM

Question: What about the “EC99 (calculated from EC50 and Hill slope)” value [2] of the same compound?
Answer: 77000 nM

Question: What about the EC50 [2, 5] of the same compound?
Answer: 22400 ± 1100 nM

Question: And the EC50 [2, 6]?
Answer: 22000 nM

Question: What about the “Time after which cell growth was arrested” value (T. brucei [3]; 10 × EC50) of the same compound?
Answer: 30 h

Question: What about the “Effect on T. brucei culture growth” value (T. brucei [3]; 10 × EC50, 3 days) of the same compound?
Answer: cytostatic effect

Question: `C[S+](C)[O-]` [DMSO] was tested. Which “IC50 of DMSO” value (human fibroblasts (MRC5); 3 days incubation) did it give?
Answer: 1.04 ± 0.08 % (v/v)

Question: What about the Attenuation of fluorescence (human fibroblasts (MRC5); DMSO 0.5%) of the same compound?
Answer: 15%

Question: And the “IC50 of DMSO” value (T. brucei [4]; 3 days incubation)?
Answer: 0.80 ± 0.06 % (v/v)

Question: What about the Attenuation of fluorescence (T. brucei [4]; DMSO 0.5%) of the same compound?
Answer: 20%

Question: Which results are given for `O=c1[nH]c2ccccc2n1C1CCN(CCCC(c2ccc(F)cc2)c2ccc(F)cc2)CC1` [Pimozide]?
Answer: EC50 [2, 7]: 340 ± 19 nM; Selectivity (MRC5 cells): 41

Question: Which EC50 ([2]; Trypanosoma brucei, 72 h, LOPAC hits (library screening), 3 days incubation, mean of 3 determinations weighted to standard error, read-out: EC50 vs. T. brucei) does the source give for `COc1ccc2c(c[n+](C)c3c4cc5c(cc4ccc23)OCO5)c1OC` [Chelerythrine chloride] here?
Answer: 59 ± 5.7 nM

Question: What about the Selectivity (MRC5 cells) of the same compound?
Answer: 42

Question: What about the EC50 (MRC5 cells; 3 days incubation, mean of 4 determinations weighted to standard error) of the same compound?
Answer: 2500 ± 480 nM

Question: `O=C(O)c1cc[c]([Hg][Cl])cc1` [4-Chloromercuribenzoic acid] was tested. Which EC50 ([2]; read-out: EC50 vs. T. brucei) did it give?
Answer: 690 ± 85 nM

Question: And the Selectivity (MRC5 cells)?
Answer: 27

Question: `N=C(N)c1ccc(OCCCCCOc2ccc(C(=N)N)cc2)cc1` [Pentamidine isethionate] was tested. Which “EC99 (calculated/predicted from EC50 and Hill slope)” value [2] did it give?
Answer: 37 nM

Question: What about the EC50 [2, 5] of the same compound?
Answer: 8.1 ± 0.54 nM

Question: What about the EC50 [2, 6] of the same compound?
Answer: 8 nM

Question: What about the Selectivity (MRC5 cells) of the same compound?
Answer: 3400

Question: And the “Effect on T. brucei culture growth” value (T. brucei [3])?
Answer: cytocidal effect

Question: And the “Time for cell density to drop below the limit of detection (1 × 10^3 cells ml−1)” value (T. brucei [3])?
Answer: ≤ 40 h

Question: For `c1ccc2c(c1)[I+]c1ccccc1-2` [Diphenyleneiodonium chloride], which EC50 [2, 7] is on record?
Answer: 120 ± 7.6 nM

Question: And the Selectivity (MRC5 cells)?
Answer: 5.7

Question: And the EC50 (MRC5 cells)?
Answer: 700 ± 870 nM

Source: paper PMC3025325, “Identification of a κ-opioid agonist as a potent and selective lead for drug development against human African trypanosomiasis” (Biochemical Pharmacology, 2010)
